Source: patent US7655392B2, “Quenching methods for red blood cell inactivation process” (priority 2004, dated 2010)
Like-named read-outs stand apart in the source and are kept apart here.

Tested on: red blood cells
Type: cell-based
Experimental: In another assay, the rabbit polyclonal sera may be reacted with treated red blood cells. After washing off unbound antibody, a FITC labeled goat anti-rabbit Fab′2 fragment (anti H+L chains, Caltag) is added. The binding of FITC label to the red blood cells correlates with the amount of acridine bound to the red blood cell surface, and is assessed by FACScan™ analysis (Becton, Dickinson and Co., NJ). The relative modification of the red blood cells is determined from the FACScan™ mean fluorescence value.
A 20 mL sample of leukoreduced whole blood (Blood Source, Sacramento, Calif.) was centrifuged at 4,100×g for 5 minutes at room temperature in each of four 50 mL centrifuge tubes. The supernatant was removed from each tube to provide red cell concentrate (RCC). […] For each washed RCC, cells were resuspended in 5 mL of the solution used for washing. This is now referred to as the RBC test sample. […] These samples were incubated for 20 hours at room temperature. After incubation, the RBC were washed in BBS (Blood Bank Saline, 0.9% saline, unbuffered, Fisher Scientific) and were diluted to a final hematocrit of 4%. A 25 μL aliquot of each was mixed with 15 μL of rabbit polyclonal anti-acridine sera diluted 1:100 in BBS and the mixture was incubated at 37° C. for 30 minutes. The cells were subsequently washed with 1.5 mL BBS. After washing was complete, the cells were mixed with 50 μL of FITC labeled goat anti-rabbit Fab′2 fragment (1:64 dilution in BBS) and incubated at 37° C. for 30 minutes. […] Note that the quenching improves as glutathione is neutralized with increasing amounts of sodium hydroxide.
The FACScan analysis of the binding of rabbit anti-acridine sera to treated red cells was used to assess a variety of quenching conditions. […] The tables represent data from two different experiments, each with samples treated under standard conditions or with 20 mM neutralized glutathione. […] The data within an experiment provides the relative efficacy of the various treatments. Because the assay may depend on the lot of red blood cells used, the absolute values of mean fluorescence may vary from one study to the next, such that relative values should only be compared within a given experiment. […] Neutralized glutathione at 20 mM results in close to background levels.
An untreated control sample as well as a standard sample (co-addition of 2 mM acidic glutathione with 0.2 mM PIC-1) were also assessed.
Full units of red cell concentrates (Interstate Blood Bank, Inc., Memphis, Tenn.) were leukoreduced. A volume of 200 mL of this RCC (80% hematocrit) was mixed with 94 mL of Erythrosol or 100 mL of Adsol (Baxter Healthcare Corp., Deerfield, Ill.) as control (unit 1). A volume of 20 mL 8% dextrose was used to dissolve PIC-1 (mg) and acid glutathione (mg) and added to one unit to provide 0.2 mM PIC-1 and 2 mM glutathione (unit 2). […] For the glutathione, 1.2 mL of 10 N NaOH was added (2 equivalents). The PIC-1 was mixed with the unit, followed 1 minute later (unit 3) or 5 minutes later (unit 4) by glutathione. For unit 5, neutralized glutathione was mixed first, followed 10 minutes later by the PIC-1. […] All units were mixed by grasping the ends of the blood bag and mixing in a FIG. 8 motion 30 times. These were then incubated at room temperature for 20 hours total. A compound adsorption device (CAD), comprising a polymeric resin contained within a mesh pouch, was used for all but the control sample. This device is intended to remove residual PIC-1, PIC-1 breakdown products, and glutathione from the samples. Samples were incubated for 8 hours, then transferred to a second blood bag containing the CAD and incubated for an additional 12 hours. Following the room temperature incubation, samples were transferred to a refrigerator (4° C.) and stored up to 43 days.

O=C(CCNc1c2ccccc2nc2ccccc12)OCCN(CCCl)CCCl [PIC-1]
mean fluorescence (16C day 0.8, unit 2: standard 0.2 mM PIC-1+2 mM GSH): 284 | mean fluorescence (16C day 0.8, unit 3: 0.2 mM PIC-1, 1' delay, 20 mM GSH+2 eq base): 20.1 | mean fluorescence (16C day 0.8, unit 4: 0.2 mM PIC-1, 5' delay, 20 mM GSH+2 eq base): 46.0 | mean fluorescence (16C day 0.8, unit 5: 20 mM GSH+2 eq base, 10' delay, 0.2 mM PIC-1): 20.0 | mean fluorescence (16C day 2, unit 2: standard 0.2 mM PIC-1+2 mM GSH): 193.5 | mean fluorescence (16C day 2, unit 3: 0.2 mM PIC-1, 1' delay, 20 mM GSH+2 eq base): 14.58 | mean fluorescence (16C day 2, unit 4: 0.2 mM PIC-1, 5' delay, 20 mM GSH+2 eq base): 34.07 | mean fluorescence (16C day 2, unit 5: 20 mM GSH+2 eq base, 10' delay, 0.2 mM PIC-1): 12.31 | mean fluorescence (16C day 7, unit 2: standard 0.2 mM PIC-1+2 mM GSH): 142.1 | mean fluorescence (16C day 7, unit 3: 0.2 mM PIC-1, 1' delay, 20 mM GSH+2 eq base): 4.96 | mean fluorescence (16C day 7, unit 4: 0.2 mM PIC-1, 5' delay, 20 mM GSH+2 eq base): 18.84 | mean fluorescence (16C day 7, unit 5: 20 mM GSH+2 eq base, 10' delay, 0.2 mM PIC-1): 5.34 | mean fluorescence (16C day 14, unit 2: standard 0.2 mM PIC-1+2 mM GSH): 135.7 | mean fluorescence (16C day 14, unit 3: 0.2 mM PIC-1, 1' delay, 20 mM GSH+2 eq base): 4.09 | mean fluorescence (16C day 14, unit 4: 0.2 mM PIC-1, 5' delay, 20 mM GSH+2 eq base): 8.41 | mean fluorescence (16C day 14, unit 5: 20 mM GSH+2 eq base, 10' delay, 0.2 mM PIC-1): 3.29 | mean fluorescence (16C day 22, unit 2: standard 0.2 mM PIC-1+2 mM GSH): 90.8 | mean fluorescence (16C day 22, unit 3: 0.2 mM PIC-1, 1' delay, 20 mM GSH+2 eq base): 2.61 | mean fluorescence (16C day 22, unit 4: 0.2 mM PIC-1, 5' delay, 20 mM GSH+2 eq base): 4.46 | mean fluorescence (16C day 22, unit 5: 20 mM GSH+2 eq base, 10' delay, 0.2 mM PIC-1): 2.12 | mean fluorescence (16C day 28, unit 2: standard 0.2 mM PIC-1+2 mM GSH): 128.7 | mean fluorescence (16C day 28, unit 3: 0.2 mM PIC-1, 1' delay, 20 mM GSH+2 eq base): 2.6 | mean fluorescence (16C day 28, unit 4: 0.2 mM PIC-1, 5' delay, 20 mM GSH+2 eq base): 5.69 | mean fluorescence (16C day 28, unit 5: 20 mM GSH+2 eq base, 10' delay, 0.2 mM PIC-1): 2.83 | mean fluorescence (16C day 35, unit 2: standard 0.2 mM PIC-1+2 mM GSH): 153.4 | mean fluorescence (16C day 35, unit 3: 0.2 mM PIC-1, 1' delay, 20 mM GSH+2 eq base): 2.74 | mean fluorescence (16C day 35, unit 4: 0.2 mM PIC-1, 5' delay, 20 mM GSH+2 eq base): 6.71 | mean fluorescence (16C day 35, unit 5: 20 mM GSH+2 eq base, 10' delay, 0.2 mM PIC-1): 2.58 | mean fluorescence (16C day 43, unit 2: standard 0.2 mM PIC-1+2 mM GSH): 136.1 | mean fluorescence (16C day 43, unit 3: 0.2 mM PIC-1, 1' delay, 20 mM GSH+2 eq base): 2.43 | mean fluorescence (16C day 43, unit 4: 0.2 mM PIC-1, 5' delay, 20 mM GSH+2 eq base): 4.51 | mean fluorescence (16C day 43, unit 5: 20 mM GSH+2 eq base, 10' delay, 0.2 mM PIC-1): 2.46 | Mean fluorescence intensity (RBC CHES pH 9 3x wash, 0.2 mM PIC-1, 2 mM GSH): 12.1 | Mean fluorescence intensity (RBC CHES pH 9 3x wash, 0.2 mM PIC-1, 20 mM GSH+0.9 eq NaOH): 3.9 | Mean fluorescence intensity (RBC CHES pH 9 3x wash, 0.2 mM PIC-1, 20 mM GSH+1.5 eq NaOH): 1.9 | Mean fluorescence intensity (RBC CHES pH 9 3x wash, 0.2 mM PIC-1, 20 mM GSH+2 eq NaOH): 1.9 | Mean fluorescence intensity (RBC Erythrosol pH 7.3 3x wash, 0.2 mM PIC-1, 2 mM GSH): 199 | Mean fluorescence intensity (RBC Erythrosol pH 7.3 3x wash, 0.2 mM PIC-1, 20 mM GSH+0.9 eq NaOH): 26.7 | Mean fluorescence intensity (RBC Erythrosol pH 7.3 3x wash, 0.2 mM PIC-1, 20 mM GSH+1.5 eq NaOH): 4.9 | Mean fluorescence intensity (RBC Erythrosol pH 7.3 3x wash, 0.2 mM PIC-1, 20 mM GSH+2 eq NaOH): 3.4 | Mean fluorescence intensity (RBC PBS pH 8 3x wash, 0.2 mM PIC-1, 2 mM GSH): 25 | Mean fluorescence intensity (RBC PBS pH 8 3x wash, 0.2 mM PIC-1, 20 mM GSH+0.9 eq NaOH): 7.2 | Mean fluorescence intensity (RBC PBS pH 8 3x wash, 0.2 mM PIC-1, 20 mM GSH+1.5 eq NaOH): 5.1 | Mean fluorescence intensity (RBC PBS pH 8 3x wash, 0.2 mM PIC-1, 20 mM GSH+2 eq NaOH): 5.1 | Mean fluorescence intensity (RBC in Erythrosol pH 7.3 no wash, 0.2 mM PIC-1, 2 mM GSH): 108 | Mean fluorescence intensity (RBC in Erythrosol pH 7.3 no wash, 0.2 mM PIC-1, 20 mM GSH+0.9 eq NaOH): 17.0 | Mean fluorescence intensity (RBC in Erythrosol pH 7.3 no wash, 0.2 mM PIC-1, 20 mM GSH+1.5 eq NaOH): 8.1
